{
  "source": "patent US12678509B2",
  "about": "“Inhibitor of apoptosis (IAP) protein antagonists” (Sanford Burnham Prebys Medical Discovery Institute, priority 2019, dated 2026)",
  "key": {"[1]": {"assay": "Cell viability (CellTiter-Glo), 6-day compound treatment", "assay_type": "cell-based, Human", "settings": "human, HFF cells, 6 d, read-out: Cell viability at max. concentration", "description": "(§1) The compound 18a was tested in 16 different cell lines. For 6-day compound treatment 1700 cells per well were plated in a 384-well plate (Corning #781098) and incubated overnight at 37° C./5% CO2. The following day, compounds in 10-fold dilutions were added to the plates and the plates were incubated for 6 days. Afterwards, 20 μL CellTiter-Glo reagent (Promega, #G7570) was added to each well outside of the incubator and the plates were read for luminescence on a Spark® multimode microplate reader (Tecan). Data was fit in GraphPad Prism 8 to a nonlinear regression curve to determine the IC50 of the compounds."}, "BT549": {"test_system": "BT549", "assay": "Cell viability (CellTiter-Glo), 6-day compound treatment", "assay_type": "cell-based, Human", "description": "as §1"}, "BxPC3": {"test_system": "BxPC3", "assay": "Cell viability (CellTiter-Glo), 6-day compound treatment", "assay_type": "cell-based, Human", "description": "as §1"}, "H69AR": {"test_system": "H69AR", "assay": "Cell viability (CellTiter-Glo), 6-day compound treatment", "assay_type": "cell-based, Human", "description": "as §1"}, "HFF": {"test_system": "HFF", "assay": "Cell viability (CellTiter-Glo), 6-day compound treatment", "assay_type": "cell-based, Human", "settings": "Homo sapiens, 144 h, read-out: IC50 6 d", "description": "as §1"}, "HL-60": {"test_system": "HL-60", "assay": "Cell viability (CellTiter-Glo), 6-day compound treatment", "assay_type": "cell-based, Human", "description": "as §1"}, "MALME 3M": {"test_system": "MALME 3M", "assay": "Cell viability (CellTiter-Glo), 6-day compound treatment", "assay_type": "cell-based, Human", "description": "as §1"}, "MDA-MB-231": {"test_system": "MDA-MB-231", "assay": "Cell viability (CellTiter-Glo), 6-day compound treatment", "assay_type": "cell-based, Human", "description": "as §1"}, "MDA-MB-468": {"test_system": "MDA-MB-468", "assay": "Cell viability (CellTiter-Glo), 6-day compound treatment", "assay_type": "cell-based, Human", "description": "as §1"}, "MV411": {"test_system": "MV411", "assay": "Cell viability (CellTiter-Glo), 6-day compound treatment", "assay_type": "cell-based, Human", "description": "as §1"}, "MiaPaCa2": {"test_system": "MiaPaCa2", "assay": "Cell viability (CellTiter-Glo), 6-day compound treatment", "assay_type": "cell-based, Human", "description": "as §1"}, "NCI-H510A": {"test_system": "NCI-H510A", "assay": "Cell viability (CellTiter-Glo), 6-day compound treatment", "assay_type": "cell-based, Human", "description": "as §1"}, "PANC1": {"test_system": "PANC1", "assay": "Cell viability (CellTiter-Glo), 6-day compound treatment", "assay_type": "cell-based, Human", "description": "as §1"}, "SHP-77": {"test_system": "SHP-77", "assay": "Cell viability (CellTiter-Glo), 6-day compound treatment", "assay_type": "cell-based, Human", "description": "as §1"}, "SW-1271": {"test_system": "SW-1271", "assay": "Cell viability (CellTiter-Glo), 6-day compound treatment", "assay_type": "cell-based, Human", "description": "as §1"}, "AML-SH-065": {"test_system": "AML-SH-065", "assay": "Cell viability in patient derived AML samples (CellTiterGlo, 72 h)", "assay_type": "cell-based, human", "description": "(§2) Patient AML samples were gathered (under IRB 13-6180) from Scripps MD Anderson, La Jolla, CA Fresh blood samples were subjected to gradient density centrifugation with Ficoll-Paque™ PLUS (17-1440-02, GE Healthcare) and peripheral blood mononuclear cells purified as per manufacturer's protocol.\n(§3) 75 nL of 1000× serially diluted IAP inhibitors were spotted in triplicate onto 384-well tissue culture treated plates (Greiner) using a Labcyte Echo acoustic dispensing device. Patient-derived AML cells were maintained in mTeSR1^+1× supplements (Stemcell Technologies) and penicillin/streptomycin/L-glutamine (Omega Scientific Inc.) and Fungizone (HyClone). 25 μL of cell dilution were plated into 384-well plate containing the drugs and incubated for 72 h. Cell viability was assessed by adding 25 μL CellTiterGlo (Promega Corp.) on a Synergy 2 plate reader with Gen5 software (Biotek). % viability was calculated by normalizing luminescence to vehicle only controls (DMSO) in Microsoft Excel and plotted using GraphPad Prism 8. The IC50 values were calculated using log(inhibitor) vs. response—Variable slope (four parameters) equation. (FIG. 6)"}, "AML-SH-074": {"test_system": "AML-SH-074", "assay": "Cell viability in patient derived AML samples (CellTiterGlo, 72 h)", "assay_type": "cell-based, human", "description": "as §2, §3"}, "AML-SH-075": {"test_system": "AML-SH-075", "assay": "Cell viability in patient derived AML samples (CellTiterGlo, 72 h)", "assay_type": "cell-based, human", "description": "as §2, §3"}, "[2]": {"test_system": "latently infected cell line Jurkat 2D10", "assay": "HIV Jurkat 2D10 cells GFP+ assay (reversal of HIV latency)", "assay_type": "cell-based", "method_in_brief": "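Jurkat 2D10 cells exposed to graded doses of test compounds or IAP antagonists (BV-6, SM-164, Birinapant, LCL-161, GDC-0152, AT-406) for 48 hours. GFP expression quantified by flow cytometry. Induction expressed relative to baseline GFP in untreated cells.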"}, "[3]": {"test_system": "cIAP1 degradation and p100 cleavage in JLat 10.6 cells", "assay": "cIAP1 degradation and p100 cleavage (western blot) with GFP expression", "assay_type": "cell-based", "settings": "24 hours, different concentrations (FIG. 4)", "description": "JLat 10.6 cells were treated with different concentrations of compound 18a for 24 hours. GFP expression indicating latency reversal was measured by flow cytometry. cIAP1 degradation and p100 cleavage were assessed by western blot using the antibodies AF8181 (R&D Systems) and #4882 (Cell Signaling Technology), respectively."}, "[4]": {"settings": "Homo sapiens, 144 h, read-out: IC50 6 d"}},
  "data": [
    {"smiles": "CN[C@@H](C)C(=O)N[C@H]1CCS[C@H]2CC(C)(C)[C@@H](C(=O)N[C@H]3c4ccccc4C[C@H]3OCC#CC#CCO[C@@H]3Cc4ccccc4[C@@H]3NC(=O)[C@H]3N4C(=O)[C@@H](NC(=O)[C@H](C)NC)CCS[C@H]4CC3(C)C)N2C1=O", "note": "[Compound 18a, (2S)-1-{[(4S,7S,9aS)-74{(1S,2R)-2-[(6-{[(1S,2R)-1-({[(4S,7S,9aS)-8,8-Dimethyl-4-{[(2S)-2-(methylammonio)propanoyl]amino}-5-oxooctahydropyrrolo[2,1-b][1,3]thiazepin-7-yl]carbonyl}amino)-2,3-dihydro-1H-inden-2-yl]oxy}hexa-2,4-diyn-1-yl)oxy]-2,3-dihydro-1H-inden-1-yl}carbamoyl)-8,8-dimethyl-5-oxooctahydropyrrolo[2,1-b][1,3]thiazepinyl]amino}-N-methyl-1-oxopropan-2-ammonium dichloride]", "values": [
      {"measurement": "viability at 6 d", "setting": "[1]", "result": "< 100", "unit": "%"},
      {"measurement": "Cell viability at max. concentration", "setting": "BT549; BT549, 6 d", "result": "I (I<10%)"},
      {"measurement": "IC50", "setting": "BT549; Homo sapiens, BT-549, 144 h, read-out: IC50 6 d", "result": "10 to 100", "unit": "nM"},
      {"measurement": "Cell viability at max. concentration", "setting": "BxPC3; BxPC3, 6 d", "result": "III (50%<III<100%)"},
      {"measurement": "IC50", "setting": "BxPC3; Homo sapiens, BXPC-3, 144 h, read-out: IC50 6 d", "result": "1 to 10", "unit": "µM"},
      {"measurement": "Cell viability at max. concentration", "setting": "H69AR; 6 d", "result": "I (I<10%)"},
      {"measurement": "IC50", "setting": "H69AR; [4]", "result": "1 to 10", "unit": "µM"},
      {"measurement": "IC50", "setting": "HFF", "result": "< 100", "unit": "µM"},
      {"measurement": "Cell viability at max. concentration", "setting": "HL-60; HL-60, 6 d", "result": "I (I<10%)"},
      {"measurement": "IC50", "setting": "HL-60; Homo sapiens, HL-60, 144 h, read-out: IC50 6 d", "result": "10 to 100", "unit": "nM"},
      {"measurement": "IC50", "setting": "MALME 3M; Homo sapiens, Malme-3M, 144 h, read-out: IC50 6 d", "result": "10 to 100", "unit": "nM"},
      {"measurement": "Cell viability at max. concentration", "setting": "MALME 3M; MALME 3M, 6 d", "result": "I (I<10%)"},
      {"measurement": "IC50", "setting": "MDA-MB-231; Homo sapiens, MDA-MB-231, 144 h, read-out: IC50 6 d", "result": "100 to 1000", "unit": "nM"},
      {"measurement": "Cell viability at max. concentration", "setting": "MDA-MB-231; MDA-MB-231, 6 d", "result": "I (I<10%)"},
      {"measurement": "IC50", "setting": "MDA-MB-468; Homo sapiens, MDA-MB-468, 144 h, read-out: IC50 6 d", "result": "100 to 1000", "unit": "nM"},
      {"measurement": "Cell viability at max. concentration", "setting": "MDA-MB-468; MDA-MB-468, 6 d", "result": "I (I<10%)"},
      {"measurement": "IC50", "setting": "MV411; Homo sapiens, MV4-11, 144 h, read-out: IC50 6 d", "result": "100 to 1000", "unit": "nM"},
      {"measurement": "Cell viability at max. concentration", "setting": "MV411; MV411, 6 d", "result": "I (I<10%)"},
      {"measurement": "IC50", "setting": "MiaPaCa2; Homo sapiens, MIA PaCa-2, 144 h, read-out: IC50 6 d", "result": "1 to 10", "unit": "µM"},
      {"measurement": "Cell viability at max. concentration", "setting": "MiaPaCa2; MiaPaCa2, 6 d", "result": "I (I<10%)"},
      {"measurement": "Cell viability at max. concentration", "setting": "NCI-H510A; 6 d", "result": "IV (IV<100%)"},
      {"measurement": "IC50", "setting": "NCI-H510A; [4]", "result": "< 100", "unit": "µM"},
      {"measurement": "IC50", "setting": "PANC1; Homo sapiens, PANC-1, 144 h, read-out: IC50 6 d", "result": "< 100", "unit": "µM"},
      {"measurement": "Cell viability at max. concentration", "setting": "PANC1; PANC1, 6 d", "result": "IV (IV<100%)"},
      {"measurement": "IC50", "setting": "SHP-77; Homo sapiens, SHP77, 144 h, read-out: IC50 6 d", "result": "< 100", "unit": "µM"},
      {"measurement": "Cell viability at max. concentration", "setting": "SHP-77; SHP-77, 6 d", "result": "IV (IV<100%)"},
      {"measurement": "IC50", "setting": "SW-1271; Homo sapiens, SW1271, 144 h, read-out: IC50 6 d", "result": "100 to 1000", "unit": "nM"},
      {"measurement": "Cell viability at max. concentration", "setting": "SW-1271; SW-1271, 6 d", "result": "I (I<10%)"},
      {"measurement": "IC50", "setting": "AML-SH-065; Homo sapiens, 72 h, read-out: AML-SH-065 IC50", "result": "< 10", "unit": "nM"},
      {"measurement": "AML-SH-065 Efficacy", "setting": "AML-SH-065; patient derived AML sample AML-SH-065, 72 h, cell viability at max. concentration", "result": "I (I < 10%)"},
      {"measurement": "IC50", "setting": "AML-SH-074; Homo sapiens, 72 h, read-out: AML-SH-074 IC50", "result": "100 to 1000", "unit": "nM"},
      {"measurement": "AML-SH-074 Efficacy", "setting": "AML-SH-074; patient derived AML sample AML-SH-074, 72 h, cell viability at max. concentration", "result": "I (I < 10%)"},
      {"measurement": "IC50", "setting": "AML-SH-075; Homo sapiens, 72 h, read-out: AML-SH-075 IC50", "result": "10 to 100", "unit": "nM"},
      {"measurement": "AML-SH-075 Efficacy", "setting": "AML-SH-075; patient derived AML sample AML-SH-075, 72 h, cell viability at max. concentration", "result": "I (I < 10%)"},
      {"measurement": "EC50", "setting": "[2]; Homo sapiens, Jurkat, 48 h, read-out: Jurkat 2D10 GFP+ EC50", "result": "1 to 10", "unit": "nM"},
      {"measurement": "efficacy in activating the latently infected cell line", "setting": "[2]; Jurkat 2D10, 48 hours, compared with BV-6, SM-164, Birinapant, LCL-161, GDC-0152, AT-406 (FIG. 1)", "result": "higher efficacy in activating the latently infected cell line than many known compounds"},
      {"measurement": "cIAP1 degradation and p100 cleavage", "setting": "[3]", "result": "correlated with HW latency reversal"}
    ]}
  ]
}
